Calls of active or inactive are those of the source. The rule behind the calls is not given here.
Tested on: rodent lifetime carcinogenesis bioassay, tumor incidence TD50
Assay: chronic cancer bioassays in animals – CPDB, compiled studies (AID 1745844)

## Nc1ccc2cc3ccc(N)cc3nc2c1
mouse, strain B6C3F1, females, in feed, site: any site (literature study), lesion: several types, types named in the paper, dosed 103 weeks, study length 103 weeks
  TD50: 86.2 mg/kg/day
mouse, strain B6C3F1, females, in feed, site: liver, lesion: hepatocellular adenoma + hepatocellular carcinoma + neoplastic nodule, dosed 103 weeks, study length 103 weeks
  TD50: 26.4 mg/kg/day
mouse, strain B6C3F1, females, in feed, site: liver, lesion: hepatocellular adenoma + hepatocellular carcinoma, dosed 103 weeks, study length 103 weeks
  TD50: 26.4 mg/kg/day
mouse, strain B6C3F1, females, in feed, site: lung, lesion: alveolar/bronchiolar adenoma + alveolar/bronchiolar carcinoma, dosed 103 weeks, study length 103 weeks
  TD50: 487 mg/kg/day
mouse, strain B6C3F1, males, in feed, site: liver, lesion: hepatocellular adenoma + hepatocellular carcinoma + neoplastic nodule, dosed 103 weeks, study length 103 weeks
  TD50: 248 mg/kg/day
rat, strain Fischer 344, males, in feed, site: large intestine + small intestine, lesion: sarcoma, NOS + adenocarcinoma, NOS + leiomyosarcoma, dosed 109 weeks, study length 109 weeks
  TD50: 213 mg/kg/day
rat, strain Fischer 344, males, in feed, site: liver, lesion: hepatocellular adenoma + hepatocellular carcinoma + neoplastic nodule, dosed 109 weeks, study length 109 weeks
  TD50: 254 mg/kg/day
rat, strain Fischer 344, males, in feed, site: liver, lesion: hepatocellular carcinoma + neoplastic nodule, dosed 109 weeks, study length 109 weeks
  TD50: 254 mg/kg/day

## CCCN(N=O)/C(N)=N/[N+](=O)[O-]
rat, strain Wistar, males, in drinking water, site: stomach, glandular, lesion: adenocarcinoma, dosed 52 weeks, study length 65 weeks
  TD50: 2.85 mg/kg/day
rat, strain Wistar, males, in drinking water, site: stomach, glandular, lesion: adenocarcinoma, dosed 52 weeks, study length 78 weeks
  TD50: 2.27 mg/kg/day
rat, strain Wistar, males, in drinking water, site: stomach, glandular, lesion: adenoma, dosed 34 weeks, study length 65 weeks
  TD50: 1.9 mg/kg/day
rat, strain Wistar, males, in drinking water, site: stomach, glandular, lesion: adenoma, dosed 52 weeks, study length 65 weeks
  TD50: 0.919 mg/kg/day
rat, strain Wistar, males, in drinking water, site: stomach, glandular, lesion: adenoma, dosed 52 weeks, study length 78 weeks
  TD50: 2.27 mg/kg/day

## CC1=CC(C)(C)N(N=O)c2ccccc21
rat, strain CB, males, i.p., site: peritoneal cavity, lesion: sarcoma, dosed 26 weeks, study length 100 weeks
  TD50: 3.31 mg/kg/day

## O=P(O)(O)O
mouse, strain B6C3F1, females, by gavage, site: any site (literature study), lesion: several types, types named in the paper, dosed 103 weeks, study length 105 weeks
  TD50: 958 mg/kg/day
mouse, strain B6C3F1, females, by gavage, site: liver, lesion: hepatocellular adenoma + hepatocellular carcinoma + neoplastic nodule, dosed 103 weeks, study length 105 weeks
  TD50: 3710 mg/kg/day
mouse, strain B6C3F1, females, by gavage, site: subcutaneous tissue, lesion: sarcoma, NOS, dosed 103 weeks, study length 105 weeks
  TD50: 1490 mg/kg/day (inactive)
mouse, strain B6C3F1, males, by gavage, site: adrenal gland, lesion: cortical adenoma, dosed 103 weeks, study length 104 weeks
  TD50: 5840 mg/kg/day (inactive)
mouse, strain B6C3F1, males, by gavage, site: any site (literature study), lesion: several types, types named in the paper, dosed 103 weeks, study length 104 weeks
  TD50: 11600 mg/kg/day
mouse, strain B6C3F1, males, by gavage, site: liver, lesion: hepatocellular adenoma + hepatocellular carcinoma + neoplastic nodule, dosed 103 weeks, study length 104 weeks
  TD50: 2950 mg/kg/day
mouse, strain B6C3F1, males, by gavage, site: lung, lesion: alveolar/bronchiolar adenoma + alveolar/bronchiolar carcinoma, dosed 103 weeks, study length 104 weeks
  TD50: 19900 mg/kg/day
mouse, strain B6C3F1, males, by gavage, site: multiple organs, lesion: malignant lymphoma, lymphocytic type, dosed 103 weeks, study length 104 weeks
  TD50: 8420 mg/kg/day

## CC(O)CN(C)N=O (stereo not drawn)
rat, strain F344/DuCrj, males, in drinking water, site: liver, lesion: one or several types, types not named, dosed 40 weeks, study length 78 weeks
  carcinogen call: negative (inactive)
rat, strain Fischer 344, females, in drinking water, site: esophagus, lesion: carcinoma, dosed 30 weeks, study length 75 weeks
  TD50: 0.408 mg/kg/day
rat, strain Fischer 344, females, in drinking water, site: esophagus, lesion: several types, types named in the paper, dosed 30 weeks, study length 75 weeks
  TD50: 0.105 mg/kg/day
rat, strain Fischer 344, females, in drinking water, site: liver, lesion: hepatocellular carcinoma, dosed 30 weeks, study length 75 weeks
  TD50: 0.895 mg/kg/day
rat, strain Fischer 344, females, in drinking water, site: liver, lesion: neoplastic nodule, dosed 30 weeks, study length 75 weeks
  TD50: 2.54 mg/kg/day
rat, strain Fischer 344, females, in drinking water, site: liver, lesion: several types, types named in the paper, dosed 30 weeks, study length 75 weeks
  TD50: 0.798 mg/kg/day
rat, strain Fischer 344, females, in drinking water, site: lung, lesion: several types, types named in the paper, dosed 30 weeks, study length 75 weeks
  TD50: 0.408 mg/kg/day
rat, strain Fischer 344, females, in drinking water, site: nasal cavity, lesion: several types, types named in the paper, dosed 30 weeks, study length 75 weeks
  TD50: 0.0486 mg/kg/day
rat, strain Fischer 344, males, in drinking water, site: esophagus, lesion: several types, types named in the paper, dosed 30 weeks, study length 75 weeks
  TD50: 0.17 mg/kg/day
rat, strain Fischer 344, males, in drinking water, site: nasal cavity, lesion: several types, types named in the paper, dosed 30 weeks, study length 75 weeks
  TD50: 0.0442 mg/kg/day

## CC(C)=NNc1nc(-c2ccc([N+](=O)[O-])o2)cs1
rat, strain Holtzman albino (Sprague-Dawley derived), females, in feed, site: forestomach, lesion: squamous-cell papilloma, dosed 36 weeks, study length 54 weeks
  TD50: 11 mg/kg/day
rat, strain Holtzman albino (Sprague-Dawley derived), females, in feed, site: forestomach, lesion: squamous-cell papilloma, dosed 44 weeks, study length 60 weeks
  TD50: 6.05 mg/kg/day

## ClCc1ccccn1
mouse, strain B6C3F1, females, by gavage, site: any site (literature study), lesion: several types, types named in the paper, dosed 99 weeks, study length 104 weeks
  TD50: 9790 mg/kg/day (inactive)
mouse, strain B6C3F1, females, by gavage, site: lung, lesion: alveolar/bronchiolar adenoma + alveolar/bronchiolar carcinoma, dosed 99 weeks, study length 104 weeks
  TD50: 2170 mg/kg/day
mouse, strain B6C3F1, males, by gavage, site: any site (literature study), lesion: several types, types named in the paper, dosed 99 weeks, study length 104 weeks
  carcinogen call: negative (inactive)
mouse, strain B6C3F1, males, by gavage, site: lung, lesion: alveolar/bronchiolar adenoma + alveolar/bronchiolar carcinoma, dosed 99 weeks, study length 104 weeks
  TD50: 2940 mg/kg/day
rat, strain Fischer 344, females, by gavage, site: any site (literature study), lesion: several types, types named in the paper, dosed 99 weeks, study length 105 weeks
  TD50: 114 mg/kg/day (inactive)
rat, strain Fischer 344, males, by gavage, site: any site (literature study), lesion: several types, types named in the paper, dosed 99 weeks, study length 105 weeks
  TD50: 671 mg/kg/day
rat, strain Fischer 344, males, by gavage, site: subcutaneous tissue, lesion: fibroma, dosed 99 weeks, study length 105 weeks
  TD50: 515 mg/kg/day (inactive)

## Nc1cc(S(=O)(=O)O)cc2cc(S(=O)(=O)O)c(N=Nc3ccc(-c4ccc(N=Nc5c(S(=O)(=O)O)cc6cc(S(=O)(=O)O)cc(N)c6c5O)cc4)cc3)c(O)c12
rat, strain Fischer 344, females, in feed, site: any site (literature study), lesion: several types, types named in the paper, dosed 13 weeks, study length 13 weeks
  TD50: 3.21 mg/kg/day
rat, strain Fischer 344, females, in feed, site: liver, lesion: hepatocellular adenoma + hepatocellular carcinoma + neoplastic nodule, dosed 13 weeks, study length 13 weeks
  TD50: 3.21 mg/kg/day
rat, strain Fischer 344, females, in feed, site: liver, lesion: hepatocellular carcinoma + neoplastic nodule, dosed 13 weeks, study length 13 weeks
  TD50: 3.21 mg/kg/day
rat, strain Fischer 344, females, in feed, site: liver, lesion: hepatocellular carcinoma, dosed 13 weeks, study length 13 weeks
  TD50: 5.97 mg/kg/day
rat, strain Fischer 344, males, in feed, site: any site (literature study), lesion: several types, types named in the paper, dosed 13 weeks, study length 13 weeks
  TD50: 1.18 mg/kg/day
rat, strain Fischer 344, males, in feed, site: liver, lesion: hepatocellular adenoma + hepatocellular carcinoma + neoplastic nodule, dosed 13 weeks, study length 13 weeks
  TD50: 1.18 mg/kg/day
rat, strain Fischer 344, males, in feed, site: liver, lesion: hepatocellular carcinoma + neoplastic nodule, dosed 13 weeks, study length 13 weeks
  TD50: 1.18 mg/kg/day

— PubChem BioAssay AID1745844 (Carcinogenic Potency Database (CPDB), 2022)
